Data from ChEMBL document CHEMBL1240453, “Substituted dihydronaphthalenes as efflux pump inhibitors of Staphylococcus aureus” (2010).
≈ marks a conversion by molar mass, not a printed value.

Assays:
[1] = biological target: T1, Quinolone resistance protein NorA (Staphylococcus aureus) (UniProt P0A0J7); settings: 1199B
T1 sequence (whole entry): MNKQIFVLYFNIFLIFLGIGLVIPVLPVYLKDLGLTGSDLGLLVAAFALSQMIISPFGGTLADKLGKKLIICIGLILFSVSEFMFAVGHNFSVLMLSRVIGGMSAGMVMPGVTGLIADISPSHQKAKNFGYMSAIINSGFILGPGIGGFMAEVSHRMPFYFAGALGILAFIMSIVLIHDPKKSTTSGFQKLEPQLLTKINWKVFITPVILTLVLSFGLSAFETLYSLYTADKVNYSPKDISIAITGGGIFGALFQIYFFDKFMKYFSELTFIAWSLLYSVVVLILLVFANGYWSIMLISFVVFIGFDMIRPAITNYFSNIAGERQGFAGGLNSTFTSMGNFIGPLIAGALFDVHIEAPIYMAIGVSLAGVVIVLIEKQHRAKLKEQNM

Staphylococcus aureus [2] = assay: microbe, parasite or virus in culture; settings: Staphylococcus aureus, 1199, 24 h
Description: Antimicrobial activity against Staphylococcus aureus 1199 after 24 hrs

Staphylococcus aureus [3] = assay: microbe, parasite or virus in culture; settings: 1199B, 24 h
Description: Antimicrobial activity against Staphylococcus aureus 1199B after 24 hrs

MEC [1] [µg/mL] | SMILES | MIC (Staphylococcus aureus [2]) [mg/L] | MIC (Staphylococcus aureus [3]) [mg/L]
25 | COC(=O)[C@H]1[C@H]2C[C@@H]3c4[nH]c5cc(OC)ccc5c4CCN3C[C@H]2C[C@@H](OC(=O)c2cc(OC)c(OC)c(OC)c2)[C@@H]1OC |  | 
 | O=C(O)c1cn(C2CC2)c2cc(N3CCNCC3)c(F)cc2c1=O [CIPROFLOXACIN] | 0.25 (≈ 0.754 µM) | 8 (≈ 24.1 µM)
